Source: patent US20210137118A1, “NEW USES OF 9-(3-DEOXY-BETA-D-RIBOFURANOSYL)ADENINE” (Agroquimicos De Levante, S.A., priority 2018, published 2021)

What was measured:
Meloidogyne incognita = test: In vitro test on M. incognita eggs (egg hatching, petri dishes); conditions: tested concentration 5%
Halyomorpha halys = test: Laboratory tests on heteroptera; format: in vivo
Anacridium aegyptium = test: Laboratory tests on orthoptera; format: in vivo

SMILES: Nc1ncnc2c1ncn2[C@@H]1O[C@H](CO)C[C@H]1O [9-(3-Deoxy-β-D-ribofuranosyl)adenine]
- action on free larvae included in the ovisacs (Meloidogyne incognita): good action
- effect on egg embryogenesis (Meloidogyne incognita): inhibition of egg embryogenesis
- effect on adult forms of heteroptera (Halyomorpha halys) (Halyomorpha halys): no significant effect
- effect on adult forms of orthoptera (Anacridium aegyptium) (Anacridium aegyptium): no significant effect
